What was measured:
P. obtusus P2O = experiment: Relative activities of purified P. obtusus P2O on pyranose substrates; type: biochemical; details: about 1% (w/v) substrate concentration; D-glucose = 100
Experimental: The P2O enzyme preparation from Example II was purified further using DEAE chromatography in 30 mM TRIS-HCl, pH 8.5, containing 2 mM EDTA and 10 ug/ml PMSF. The sample was eluted from a 5×16 cm column using a gradient of 0-300 mM NaCl. P2O activity was monitored using the orthodianisidine colorometric assay for the peroxide co-product, essentially as described by Ruelius et al., Biochim et Biophys. Acta 167, 493-500 (1968). P2O activity eluted at about 50 mM NaCl. Fractions containing the peak activity were pooled and concentrated to 0.5 ml by ultrafiltration using Amicon filters obtained from Amicon Corp. (Danvers, MA). Biogel P300 was obtained from Biorad Laboratories (Richmond, CA). The sample was further purified by molecular sieve chromatography using a 1.5×95 cm Biogel P300 column in 100 mM sodium phosphate, pH 7 buffer. The P2O activity eluted at a sharp peak corresponding to an apparent native molecular weight of about 290,000 daltons.
The enzyme appears to contain one covalently bound flavin molecule per subunit (detectable as UV-fluorescence in the 68,000 dalton SDS-PAGE band), and has absorption maxima at 276, 357 and 456 nm. The enzyme has a sedimentation coefficient of about 11.4, as determined by sucrose gradient ultracentrifugation. The relative activities of the enzyme, on D-glucose, L-sorbose, D-xylose, and D-gluconolactone are 100: 80: 48: 12, respectively, at about 1% (w/v) substrate concentration. As noted above with respect to FIG. 2, the enzyme has a broad pH optimum of between about 4.5 and 5.5.

C. versicolor P2O = biological target: T1, C. versicolor P2O (Trametes versicolor, UniProt P79076); experiment: Relative activities of purified C. versicolor P2O on pyranose substrates; type: biochemical; details: 1% (w/v) substrate concentration; D-glucose = 100
T1 construct: endogenous in cells; host or cells: Coriolus versicolor, own culture (NRRL 15152 / CMCC 0748, selected high producer; native enzyme, purified)
Experimental: The enzyme was applied to a 2.6×40 cm DEAE column, washed, and eluted using a 0-300 mM NaCl gradient. The P2O elutes at about 220 mM. Portions of each fraction were assayed for P2O activity, by monitoring peroxide generation conventionally. Protein concentration was also determined by a conventional method. The fractions containing P2O activity were pooled and concentrated by ultrafiltration with an Amicon PM10 filter obtained from Amicon Corp. Peak fractions were dialyzed into 30 mM sodium acetate (pH 5.5), adjusted to 1.5M NaCl and loaded onto a phenylsepharose column. The P2O was eluted with a 0-1.5M NaCl gradient in 50 mM sodium acetate, pH 5.5. The enzyme eluted at about 1.1M NaCl. Fractions containing the peak activity were pooled and concentrated to 0.5 ml by Amicon PM30 ultrafiltration and sized according to native molecular weight using a 1.5×95 cm Biogel P300 column. Elution was at 0.1 ml/minute with 100 mM sodium phosphate, pH 7.0. Using known molecular weight markers in the column, the enzyme's apparent native molecular weight was calculated to be about 130,000 daltons. A single band having a molecular weight of about 65,000 was observed when the enzyme was analyzed by SDS-PAGE. The enzyme thus appears to be a homodimer. The enzyme was judged to be about 95% pure, based on the staining intensity of protein bands in SDS-PAGE.
The relative activities of the enzyme on the substrates D-glucose, L-sorbose, D-xylose and delta-D-gluconolactone are 100: 74: 41: 6, respectively, at 1% (w/v) substrate concentration. The enzyme has a pH optimum of about 5.0.

L. betulinus P2O = experiment: Relative activities of purified L. betulinus P2O on pyranose substrates; type: biochemical; details: 20 mM substrate concentration; D-glucose = 100
Experimental: The resulting clear yellow supernatant was further purified using DEAE chromatography in 30 mM TRIS-HCl, pH 8.5, and eluted from the 5×16 cm column using a 0-300 mM NaCl gradient. The protein eluted at about 75 mM NaCl. Fractions containing the peak of P2O activity were pooled and concentrated to 0.5 ml by Amicon PM30 ultrafiltration, and then fractionated, according to native molecular weight, using a 1.5×95 cm Biogel P300 column. The column was run at a flow rate of 0.1 ml per minute, using 100 mM sodium phosphate, pH 7.0. The protein eluted in a fraction corresponding to an apparent native molecular weight of about 300,000 daltons. […] Based on the molecular weight data, the protein appears to be a homotetramer.
The enzyme contains a covalently attached flavin on each subunit, and has absorption maxima at 275, 360, and 450 nm. The relative activities of the purified enzyme on the pyranose substrates D-glucose, L-sorbose, D-xylose and delta-D-gluconolactone are 100: 43: 43: 26, respectively, at 20 mM substrate concentration. The enzyme has a broad pH optimum between about 5 and 6.

[1] = Nonenzymatic breakdown of purified glucosone (UV scans 200-350 nm; H2O2 effect); type: physicochemical; details: for Change of 310 nm peak (nonenzymatic breakdown): 0.5% glucosone solution, scans at one minute intervals
Experimental: The conversion of a pyranose to the corresponding pyranosone by P2O in the presence of oxygen is accompanied by the stoichiometric production of H2 O2. The H2 O2 produced in the reaction may promote oxidative degradation of the product. Studies performed in support of the present application indicate that nonenzymatic breakdown of glucosone to acidic products may be accelerated at H2 O2 concentrations above about 0.2 mM. More importantly, elevated H2 O2 concentrations produce relatively rapid inactivation of the P2O enzyme. The susceptibility of P2O to inactivation by elevated concentrations of H2 O2 in a continuous-flow reactor is described below in Example XIII. Briefly, four continuous-flow reactors containing different P2O/catalase activity ratios were run in the presence of pure glucose. The half-life of the P2O enzyme in each reactor was determined from the observed change in the amount of glucosone eluting from the reactor over a several-day reaction period. The measured half-lives of P2O expressed in arbitrary half-life units, are given in Example XIII, Table 1. As will be seen from the table, the presence of catalase, at a P2O/catalase activity ratio of less than about 10^-3 and preferably less than about 2×10^-4 (i.e., at an H2 O2 concentration of less than about 0.2mM) extends the measured P2O half-life 30-60 fold with respect to that of P2O reacted with glucose in the absence of catalase.
Secondly, studies indicate that pure glucosone undergoes relatively rapid, nonenzymatic breakdown above a pH of about 7.0. […] Immediately thereafter, the solution was scanned spectrophotometrically in the UV range between 200 and 350 nm, at one minute intervals.

SMILES	Relative activity of the enzyme on substrate (P. obtusus P2O)	Relative activity of the enzyme on substrate (C. versicolor P2O)	Relative activity of the enzyme on substrate (L. betulinus P2O)	H2O2 concentration above which nonenzymatic breakdown to acidic products may be accelerated [1]	Change of 310 nm peak (nonenzymatic breakdown) ([1]; pH 6.0)	Change of 310 nm peak (nonenzymatic breakdown) ([1]; pH 7.0, buffered)
O=C[C@H](O)[C@@H](O)[C@H](O)CO [D-xylose]	48	41	43	–	–	–
O=CC(=O)[C@@H](O)[C@H](O)[C@H](O)CO [glucosone, D-arabino-2-hexosulose]	–	–	–	above 0.2 mM	no initial peak at 310 nm was observed nor did one form	increasing several-fold over a five minute period
O=C1O[C@H](CO)[C@@H](O)[C@H](O)[C@H]1O [delta-D-gluconolactone, D-gluconic acid delta-lactone]	12	6	26	–	–	–
O=C(CO)[C@@H](O)[C@H](O)[C@@H](O)CO [L-sorbose]	80	74	43	–	–	–
O=C[C@H](O)[C@@H](O)[C@H](O)[C@H](O)CO [D-glucose]	100	100	100	–	–	–

— patent publication US4569910A, “Methods and reagents for pyranosone production” (Cetus Corporation, priority 1984, dated 1986)
